Reference: ChEMBL document CHEMBL1152733, “Specificities of calreticulin transacetylase to acetoxy derivatives of 3-alkyl-4-methylcoumarins: effect on the activation of nitric oxide synthase” (Bioorg Med Chem, 2009)
Activity calls are given as the source filed them.

Legend:
Platelet = experiment: Increase in NO levels in citreated human platelet rich plasma assessed as enhancement of dichloro fluorescein fluorescence by flow cytometry; assay type: functional
Rattus norvegicus [1] = species: Rattus norvegicus; experiment: Inhibition of rat liver microsomal CRTAase-mediated inhibition of cytosolic glutathione S-transferase activity
Rattus norvegicus [2] = species: Rattus norvegicus; experiment: Inhibition of rat liver microsomal CRTAase catalyzed activation of NADPH cytochrome C reductase

Measured: Activity

CCCCCCCCCCc1c(C)c2ccc(OC(C)=O)cc2oc1=O
active: all assays above

CCc1c(C)c2ccc(OC(C)=O)c(OC(C)=O)c2oc1=O
active: all assays above

CCCCCCc1c(C)c2ccc(OC(C)=O)c(OC(C)=O)c2oc1=O
active: all assays above

CCCCCCc1c(C)c2ccc(OC(C)=O)cc2oc1=O
active: all assays above

CCc1c(C)c2ccc(OC(C)=O)cc2oc1=O
active: all assays above

CC(=O)Oc1ccc2c(C)cc(=O)oc2c1OC(C)=O
active: all assays above

CC(=O)Oc1ccc2c(C)cc(=O)oc2c1
active: all assays above

CCCCCCCCCCc1c(C)c2ccc(OC(C)=O)c(OC(C)=O)c2oc1=O
active: all assays above
